ChEMBL document CHEMBL1201862, “PubChem BioAssay data set” (2004)
Values belong to the compound of their own block, whether it stands above or below them. Active and inactive are the calls of the source.

Key:
Cytochrome P450 3A4 [1] = target: T1, Cytochrome P450 3A4 (Homo sapiens, UniProt P08684); settings: Potency
Cytochrome P450 2D6 = Cytochrome P450 2D6 (Homo sapiens, UniProt P10635);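 note: CYP2D6 member of a cytochrome P450 panel assay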
Cytochrome P450 3A4 [2] = target: T1, Cytochrome P450 3A4
Cytochrome P450 2C9 = Cytochrome P450 2C9 (Homo sapiens, UniProt P11712)
[3] = growth suppression of beta-catenin-knockout colon cells, dose response, cell-based, HCT116, human colon tumor (AID 1045); assay type: functional;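 note: HCT116 colon tumor cells with beta catenin knocked out; cells exposed to compound for 60 hours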
[4] = growth suppression of PTEN-null colon cells, dose response, cell-based, HCT116 PTEN knockout (AID 1047); assay type: functional;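 note: HCT116 colon tumor cells with PTEN knocked out; cells exposed to compound for 60 hours before readout; potency for loss of cell viability measured by luminescence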
Aminopeptidase N = target: T2, Aminopeptidase N (Plasmodium falciparum FcB1/Columbia, UniProt O96935); assay: P. falciparum M1AAP inhibitors, biochemical, fluorogenic H-Leu-NHMec substrate, 1536-well (AID 1445); set-up: species or system Plasmodium falciparum 3D7, 3D7
T2 sequence (O96935 whole entry): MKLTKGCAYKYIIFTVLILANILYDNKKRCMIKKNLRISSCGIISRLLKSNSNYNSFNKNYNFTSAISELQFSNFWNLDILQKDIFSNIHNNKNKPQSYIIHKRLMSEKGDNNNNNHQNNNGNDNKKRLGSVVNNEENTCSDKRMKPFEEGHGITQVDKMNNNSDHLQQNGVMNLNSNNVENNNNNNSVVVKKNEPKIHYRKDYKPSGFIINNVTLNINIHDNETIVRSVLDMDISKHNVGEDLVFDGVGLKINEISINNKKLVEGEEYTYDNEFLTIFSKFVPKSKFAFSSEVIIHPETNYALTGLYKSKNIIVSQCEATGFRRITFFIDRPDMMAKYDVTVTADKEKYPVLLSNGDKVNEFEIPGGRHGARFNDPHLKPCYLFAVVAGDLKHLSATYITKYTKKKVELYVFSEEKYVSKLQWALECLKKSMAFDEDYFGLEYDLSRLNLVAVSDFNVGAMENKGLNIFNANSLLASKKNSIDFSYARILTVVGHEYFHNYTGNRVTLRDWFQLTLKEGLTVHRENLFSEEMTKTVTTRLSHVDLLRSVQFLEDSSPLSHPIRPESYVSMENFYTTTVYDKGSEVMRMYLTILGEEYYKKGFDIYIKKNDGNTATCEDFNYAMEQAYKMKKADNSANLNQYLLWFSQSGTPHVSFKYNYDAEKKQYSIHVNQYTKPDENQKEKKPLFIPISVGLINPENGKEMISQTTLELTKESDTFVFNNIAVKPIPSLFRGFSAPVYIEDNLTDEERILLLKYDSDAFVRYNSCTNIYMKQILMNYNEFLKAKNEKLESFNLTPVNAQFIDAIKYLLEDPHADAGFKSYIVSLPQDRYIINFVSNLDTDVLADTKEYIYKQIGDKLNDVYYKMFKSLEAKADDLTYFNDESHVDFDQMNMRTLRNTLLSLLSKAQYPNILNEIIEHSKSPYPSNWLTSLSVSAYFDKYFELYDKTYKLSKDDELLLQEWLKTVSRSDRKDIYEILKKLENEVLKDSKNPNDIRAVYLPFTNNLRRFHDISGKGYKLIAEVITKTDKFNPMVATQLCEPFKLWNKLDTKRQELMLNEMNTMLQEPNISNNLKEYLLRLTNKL

Cytochrome P450 2C19 = Cytochrome P450 2C19 (Homo sapiens, UniProt P33261); assay: Cytochrome panel assay with activity outcomes. Panel member name: p450-cyp2c19 Compounds with AC50 equal or less than 10 uM are considered active; assay type: functional; settings: read-out: AC50
[5] = target: T3, RNA-binding protein pos-1 (Caenorhabditis elegans, UniProt G5EF15); assay: inhibitors of POS-1/mex-3 RNA binding, dose response, biochemical, fluorescence polarization (AID 1964);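 note: purified POS-1 fused to maltose binding protein made in E. coli; potency of compounds blocking POS-1 binding to fluorescent RNA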
T3 sequence (G5EF15 whole entry): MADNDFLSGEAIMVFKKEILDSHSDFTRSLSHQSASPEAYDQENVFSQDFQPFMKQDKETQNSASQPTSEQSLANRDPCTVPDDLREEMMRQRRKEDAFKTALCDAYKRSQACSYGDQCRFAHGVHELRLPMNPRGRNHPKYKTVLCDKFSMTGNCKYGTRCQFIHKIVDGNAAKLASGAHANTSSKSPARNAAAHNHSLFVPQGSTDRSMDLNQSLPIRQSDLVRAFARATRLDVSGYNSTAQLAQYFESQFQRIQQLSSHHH

[6] = target: T4, Zinc finger protein mex-5 (Caenorhabditis elegans, UniProt Q9XUB2); assay: MEX-5/TCR-2 RNA interaction inhibitors, dose response, biochemical, C. elegans, fluorescence polarization (AID 1960)
T4 sequence (Q9XUB2 whole entry): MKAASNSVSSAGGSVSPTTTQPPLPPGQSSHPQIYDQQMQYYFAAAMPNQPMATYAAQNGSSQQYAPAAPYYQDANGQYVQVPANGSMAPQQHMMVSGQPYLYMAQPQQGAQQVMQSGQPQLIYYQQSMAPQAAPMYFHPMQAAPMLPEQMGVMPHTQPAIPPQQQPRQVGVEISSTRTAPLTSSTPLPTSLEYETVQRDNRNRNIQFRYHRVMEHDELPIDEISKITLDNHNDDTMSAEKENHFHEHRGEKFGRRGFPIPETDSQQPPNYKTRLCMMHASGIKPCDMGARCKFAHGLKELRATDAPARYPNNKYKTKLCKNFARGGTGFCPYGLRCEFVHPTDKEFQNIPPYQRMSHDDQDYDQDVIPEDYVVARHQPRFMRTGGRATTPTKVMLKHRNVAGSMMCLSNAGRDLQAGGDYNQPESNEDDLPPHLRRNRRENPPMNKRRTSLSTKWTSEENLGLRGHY

Cytochrome P450 1A2 = target: T5, Cytochrome P450 1A2 (Homo sapiens, UniProt P05177);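 note: PubChem cytochrome P450 panel assay, CYP1A2 panel member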
T5 sequence (P05177 whole entry): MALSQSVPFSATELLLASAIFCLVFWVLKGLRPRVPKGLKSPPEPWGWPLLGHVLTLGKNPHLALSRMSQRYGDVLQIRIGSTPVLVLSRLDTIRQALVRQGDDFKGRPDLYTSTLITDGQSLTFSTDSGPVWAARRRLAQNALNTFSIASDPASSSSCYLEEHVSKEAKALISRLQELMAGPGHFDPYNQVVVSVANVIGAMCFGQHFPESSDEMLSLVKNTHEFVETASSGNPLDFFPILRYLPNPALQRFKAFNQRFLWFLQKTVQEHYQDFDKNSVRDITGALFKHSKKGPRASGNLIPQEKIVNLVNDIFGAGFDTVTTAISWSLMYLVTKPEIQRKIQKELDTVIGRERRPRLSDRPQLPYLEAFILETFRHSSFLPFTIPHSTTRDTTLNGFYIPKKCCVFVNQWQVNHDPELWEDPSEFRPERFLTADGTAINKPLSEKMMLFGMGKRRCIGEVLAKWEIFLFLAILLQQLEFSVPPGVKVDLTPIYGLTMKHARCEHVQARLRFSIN

T1 sequence (P08684 whole entry): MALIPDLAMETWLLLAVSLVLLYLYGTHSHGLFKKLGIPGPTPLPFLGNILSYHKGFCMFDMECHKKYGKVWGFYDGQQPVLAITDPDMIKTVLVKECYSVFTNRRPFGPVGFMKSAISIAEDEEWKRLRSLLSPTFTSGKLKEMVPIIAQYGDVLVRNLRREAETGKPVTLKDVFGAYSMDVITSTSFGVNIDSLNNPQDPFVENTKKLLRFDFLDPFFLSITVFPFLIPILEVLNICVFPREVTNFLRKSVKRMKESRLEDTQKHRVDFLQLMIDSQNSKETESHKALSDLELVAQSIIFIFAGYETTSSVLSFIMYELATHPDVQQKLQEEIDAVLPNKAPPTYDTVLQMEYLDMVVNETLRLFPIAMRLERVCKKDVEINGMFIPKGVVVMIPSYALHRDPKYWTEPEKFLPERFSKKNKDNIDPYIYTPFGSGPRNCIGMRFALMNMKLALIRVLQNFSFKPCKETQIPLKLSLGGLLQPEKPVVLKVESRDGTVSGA
Cytochrome P450 2C9, sequence (P11712 whole entry): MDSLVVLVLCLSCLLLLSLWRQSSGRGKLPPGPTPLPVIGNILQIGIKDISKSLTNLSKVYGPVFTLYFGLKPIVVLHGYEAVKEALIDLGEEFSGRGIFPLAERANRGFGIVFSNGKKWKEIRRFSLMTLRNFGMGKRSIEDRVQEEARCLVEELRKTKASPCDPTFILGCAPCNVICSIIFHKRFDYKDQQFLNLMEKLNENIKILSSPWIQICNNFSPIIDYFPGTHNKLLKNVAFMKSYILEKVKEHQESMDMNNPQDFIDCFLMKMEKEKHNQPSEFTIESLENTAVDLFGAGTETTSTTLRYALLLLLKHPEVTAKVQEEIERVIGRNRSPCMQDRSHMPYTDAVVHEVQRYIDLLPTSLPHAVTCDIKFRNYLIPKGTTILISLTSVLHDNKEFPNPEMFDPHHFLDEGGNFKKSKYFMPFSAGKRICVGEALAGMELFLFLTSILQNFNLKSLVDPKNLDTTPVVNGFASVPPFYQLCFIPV
Cytochrome P450 2C19, sequence (P33261 whole entry, the tested form may be a part): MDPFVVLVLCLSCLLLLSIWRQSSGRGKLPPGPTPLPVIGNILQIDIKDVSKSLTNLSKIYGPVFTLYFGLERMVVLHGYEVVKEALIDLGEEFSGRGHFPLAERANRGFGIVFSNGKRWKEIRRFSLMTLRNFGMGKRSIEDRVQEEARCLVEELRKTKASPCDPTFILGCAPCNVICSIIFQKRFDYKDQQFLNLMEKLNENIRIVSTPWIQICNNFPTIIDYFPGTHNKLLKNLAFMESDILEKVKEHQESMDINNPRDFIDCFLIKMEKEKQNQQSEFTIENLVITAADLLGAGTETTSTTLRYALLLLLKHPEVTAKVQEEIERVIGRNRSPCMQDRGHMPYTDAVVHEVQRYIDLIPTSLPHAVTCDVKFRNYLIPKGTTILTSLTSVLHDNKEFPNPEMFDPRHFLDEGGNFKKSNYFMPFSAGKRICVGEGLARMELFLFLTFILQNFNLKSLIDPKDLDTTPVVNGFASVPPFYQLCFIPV
Cytochrome P450 2D6, sequence (P10635 whole entry): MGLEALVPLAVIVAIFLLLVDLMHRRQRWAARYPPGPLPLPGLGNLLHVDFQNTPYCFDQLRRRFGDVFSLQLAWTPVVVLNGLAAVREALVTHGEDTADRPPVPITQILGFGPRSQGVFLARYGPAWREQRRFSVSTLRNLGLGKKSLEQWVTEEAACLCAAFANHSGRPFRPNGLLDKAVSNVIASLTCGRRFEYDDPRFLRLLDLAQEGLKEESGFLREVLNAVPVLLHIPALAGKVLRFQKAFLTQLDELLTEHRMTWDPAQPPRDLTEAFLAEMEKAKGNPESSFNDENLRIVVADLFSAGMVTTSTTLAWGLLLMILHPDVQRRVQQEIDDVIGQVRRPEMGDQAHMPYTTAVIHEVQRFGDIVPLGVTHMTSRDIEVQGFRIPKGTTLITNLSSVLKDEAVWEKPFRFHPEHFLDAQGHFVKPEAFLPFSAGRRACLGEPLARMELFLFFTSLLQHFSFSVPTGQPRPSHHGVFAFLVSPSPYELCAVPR

SMILES: Cc1ccc(OCCCOc2cccc3cccnc23)cc1C
AC50 (Cytochrome P450 2D6): 17.8 µM (inconclusive)
AC50 (Cytochrome P450 3A4 [2]): 28.2 µM (inconclusive)
AC50 (Cytochrome P450 2C9): inconclusive

SMILES: Cc1cccc(NS(=O)(=O)c2ccc3c(c2)Cc2cc(S(=O)(=O)Nc4cccc(C)c4C)ccc2-3)c1C
EC50 [3]: 10.2 µM (active)
EC50 [4]: 11 µM (active)

SMILES: CCOP(=O)(OCC)c1nc(/C=C/c2ccccc2)oc1NCc1ccc(OC)cc1
IC50 (Aminopeptidase N): 128 µM (active)

SMILES: C=C(C(=O)c1ccccc1)C(C)CC(=O)c1ccccc1 (configuration not stated)
EC50 [3]: 4.74 µM (active)
EC50 [4]: 5.17 µM (active)

SMILES: CC(=O)c1c(O)c(C)c(O)c2c1OC1=CC(=O)C(C(C)=O)C(=O)C12C (configuration not stated)
AC50 (Cytochrome P450 3A4 [1]): 0.159 µM (inconclusive)

SMILES: COc1ccc2c(c1[N+](=O)[O-])CCC/C2=N/OC(=O)c1ccccc1SC
AC50 (Cytochrome P450 3A4 [2]): 15.8 µM (inconclusive)
AC50 (Cytochrome P450 2C9): inconclusive

SMILES: COc1ccc(-c2nnc(SCc3cccc(C)c3)n2N)cc1
AC50 (Cytochrome P450 2C9): inconclusive

SMILES: O=C1c2c(O)cc(O)cc2OC(c2ccc(O)c(O)c2)C1O (configuration not stated) [TAXIFOLIN]
AC50 (Cytochrome P450 3A4 [1]): 25.1 µM (inconclusive)

Second part, the compound after the results:

AC50 (Cytochrome P450 3A4 [1]): 3.98 µM (inconclusive)
SMILES: CCN1C(C)=C(C(=O)OC)C(c2ccccc2)N2C(=O)[C@](O)(C(=O)OC)C(c3ccccc3)C(C(C)=O)=C12 (some centres not stated)

AC50 (Cytochrome P450 3A4 [2]): 15.8 µM (inconclusive)
AC50 (Cytochrome P450 2C9): inconclusive
SMILES: CCOCCCNC(=O)C1CCN(S(=O)(=O)N2CC(C)CC(C)C2)CC1 (configuration not stated)

AC50 (Cytochrome P450 2C19): 17.8 µM (inconclusive)
AC50 (Cytochrome P450 2C9): inconclusive
SMILES: CN(C)S(=O)(=O)c1ccc(NC(=O)c2cc(F)c(F)cc2Cl)cc1

AC50 (Cytochrome P450 3A4 [1]): 31.6 µM (inconclusive)
SMILES: CC(C)c1c(O)ccc2c1CCC1[C@@](C)(C=O)CCC[C@@]21C (some centres not stated)

AC50 (Cytochrome P450 3A4 [2]): 11.2 µM (inconclusive)
AC50 (Cytochrome P450 2C9): inconclusive
SMILES: COc1ccccc1CN1C(=O)c2ccncc2C1=O

IC50 (Aminopeptidase N): 22.6 µM (active)
SMILES: O=C(CN1CCC(NC(=O)c2cccc(F)c2)CC1)NCc1cccs1

AC50 (Cytochrome P450 3A4 [1]): 20 µM (inconclusive)
SMILES: COC(=O)CCCCCN1C(=O)NC(CC2CC2)C(C(=O)OCc2ccccc2)=C1C (configuration not stated)

AC50 (Cytochrome P450 2C19): 0.251 µM (inconclusive)
AC50 (Cytochrome P450 2D6): 5.01 µM (inconclusive)
AC50 (Cytochrome P450 2C9): inconclusive
SMILES: O=C(N/N=C\c1ccc2c(c1)CCC2)c1ccccc1O

EC50 [5]: > 300 µM (not active)
EC50 [6]: > 300 µM (not active)
SMILES: COCc1cc(O)n2nc(-c3cccs3)cc2n1

AC50 (Cytochrome P450 3A4 [1]): 15.8 µM (inconclusive)
SMILES: N#Cc1ccc(C23CC4(C2)[C@H](CN(CC2CCCCC2)[C@@H]4c2ccccc2)C3c2ccc(Cl)nc2)cc1 (some centres not stated)

AC50 (Cytochrome P450 2C9): inconclusive
AC50 (Cytochrome P450 1A2): 15.8 µM (inconclusive)
SMILES: O=C(C[S+]([O-])c1cccc(C(F)(F)F)c1)Nc1ccccc1Cl (configuration not stated)

AC50 (Cytochrome P450 2C9): inconclusive
SMILES: COc1cccc(Nc2ncc3nc(-c4ccc(F)cc4)c(=O)n(CCC#N)c3n2)c1
